Data: the Kinase Knowledgebase extract (Sharma et al. 2016)

target: CDK2 (human) (UniProt P24941); assay: Enzyme Assay; conditions: not given

| Ki [nM] | Compound |
| --- | --- |
| 1.2 | CN(C)CCNc1ccc(S(=O)(=O)N2CCC(Nc3nc(N)c(C(=O)c4c(F)cccc4F)s3)CC2)cn1 |
| 4.9 | CN(CCN)c1ccc(S(=O)(=O)N2CCC(Nc3nc(N)c(C(=O)c4c(F)cccc4F)s3)CC2)cn1 |

same assay, conditions: concentration not given here

| Compound | inhibition [%] |
| --- | --- |
| COc1c(C)cccc1C(=O)N1CCC(Nc2nc(N)c(C(=O)c3c(F)cccc3F)s2)CC1 | 10 |
| Nc1nc(NC2CCN(C(=O)c3cccc(F)c3F)CC2)sc1C(=O)c1c(F)cccc1F | 11 |
| CCOc1ccccc1/C=C/C(=O)N1CCC(Nc2nc(N)c(C(=O)c3c(F)cccc3F)s2)CC1 | 80 |
| Nc1nc(NC2CCN(C(=O)COc3ccccc3O)CC2)sc1C(=O)c1c(F)cccc1F | 63 |
| Nc1nc(NC2CCN(C(=O)C(O)c3cccc(O)c3)CC2)sc1C(=O)c1c(F)cccc1F (configuration not stated) | 47 |
| COc1cc(C(O)C(=O)N2CCC(Nc3nc(N)c(C(=O)c4c(F)cccc4F)s3)CC2)ccc1O (configuration not stated) | 26 |
| Nc1nc(NC2CCN(C(=O)/C=C/c3ccccc3O)CC2)sc1C(=O)c1c(F)cccc1F | 74 |
| Nc1nc(NC2CCN(C(=O)CCC3CCCCC3=O)CC2)sc1C(=O)c1c(F)cccc1F (configuration not stated) | 50 |
| Nc1nc(NC2CCN(C(=O)C3CC(=O)c4ccccc43)CC2)sc1C(=O)c1c(F)cccc1F (configuration not stated) | 79 |
| Nc1nc(NC2CCN(C(=O)[C@@H](O)C3CCCCC3)CC2)sc1C(=O)c1c(F)cccc1F | 51 |
| Nc1nc(NC2CCN(C(=O)/C=C/c3ccccc3Cl)CC2)sc1C(=O)c1c(F)cccc1F | 83 |
| Cc1c(S(=O)(=O)N2CCC(Nc3nc(N)c(C(=O)c4c(F)cccc4F)s3)CC2)sc2ccc(Cl)cc12 | -2 |
| Nc1nc(NC2CCN(C(=O)/C=C/c3cccc(F)c3)CC2)sc1C(=O)c1c(F)cccc1F | 70 |
| Nc1nc(NC2CCN(C(=O)CCCN3C(=O)C=CC3=O)CC2)sc1C(=O)c1c(F)cccc1F | 43 |
| Nc1nc(NC2CCN(C(=O)COc3ccccc3)CC2)sc1C(=O)c1c(F)cccc1F | 59 |
| [N-]=[N+]=C1C=C(S(=O)(=O)N2CCC(Nc3nc(N)c(C(=O)c4c(F)cccc4F)s3)CC2)c2ccccc2C1=O | -11 |
| Nc1nc(NC2CCN(C(=O)c3c(F)cccc3F)CC2)sc1C(=O)c1c(F)cccc1F | -20 |
| CC1(C)C2CC[C@@]1(CS(=O)(=O)N1CCC(Nc3nc(N)c(C(=O)c4c(F)cccc4F)s3)CC1)C(=O)C2 | -34 |
| Nc1nc(NC2CCN(C(=O)COc3cccc(C=O)c3)CC2)sc1C(=O)c1c(F)cccc1F | 38 |
| COc1cc(C(=O)N2CCC(Nc3nc(N)c(C(=O)c4c(F)cccc4F)s3)CC2)cc(OC)c1C | 58 |
| COC(=O)[C@H]1CC=CC[C@H]1C(=O)N1CCC(Nc2nc(N)c(C(=O)c3c(F)cccc3F)s2)CC1 | 22 |
| Cc1ccc(/C=C/C(=O)N2CCC(Nc3nc(N)c(C(=O)c4c(F)cccc4F)s3)CC2)cc1C | 52 |
| Nc1nc(NC2CCN(C(=O)Cc3ccc4c(c3)OCO4)CC2)sc1C(=O)c1c(F)cccc1F | 39 |
| CC(=O)C(O)(C(=O)N1CCC(Nc2nc(N)c(C(=O)c3c(F)cccc3F)s2)CC1)c1ccccc1 (configuration not stated) | 26 |

| Compound | inhibition [%] |
| --- | --- |
| CC(C)C(C(=O)N1CCC(Nc2nc(N)c(C(=O)c3c(F)cccc3F)s2)CC1)c1ccccc1 (configuration not stated) | 29 |
| Nc1nc(NC2CCN(C(=O)c3ccc4c(c3)CCO4)CC2)sc1C(=O)c1c(F)cccc1F | 83 |
| Nc1nc(NC2CCN(C(=O)Cc3c[nH]c4ccc(F)cc34)CC2)sc1C(=O)c1c(F)cccc1F | 66 |
| Nc1nc(NC2CCN(C(=O)COc3cc(Cl)c(Cl)cc3Cl)CC2)sc1C(=O)c1c(F)cccc1F | -10 |
| COc1ccc(C(=O)N2CCC(Nc3nc(N)c(C(=O)c4c(F)cccc4F)s3)CC2)cc1F | 72 |
| Cc1cc(C)c(C(=O)N2CCC(Nc3nc(N)c(C(=O)c4c(F)cccc4F)s3)CC2)cc1C | 44 |
| Nc1nc(NC2CCN(C(=O)C3(c4ccccc4)CC3)CC2)sc1C(=O)c1c(F)cccc1F | -2 |
| COc1cscc1C(=O)N1CCC(Nc2nc(N)c(C(=O)c3c(F)cccc3F)s2)CC1 | 58 |
| Nc1nc(NC2CCN(C(=O)/C(F)=C/c3ccccc3)CC2)sc1C(=O)c1c(F)cccc1F | 64 |
| CC[C@H](C(=O)N1CCC(Nc2nc(N)c(C(=O)c3c(F)cccc3F)s2)CC1)c1ccccc1 | 42 |
| Nc1nc(NC2CCN(C(=O)c3cnnc4ccccc34)CC2)sc1C(=O)c1c(F)cccc1F | 28 |
| Nc1nc(NC2CCN(C(=O)c3ccc(CO)cc3)CC2)sc1C(=O)c1c(F)cccc1F | 47 |
| Nc1nc(NC2CCN(C(=O)OCc3ccccc3)CC2)sc1C(=O)c1c(F)cccc1F | -32 |
| CO[C@@H](C(=O)N1CCC(Nc2nc(N)c(C(=O)c3c(F)cccc3F)s2)CC1)c1ccccc1 | 54 |
| Nc1nc(NC2CCN(C(=O)c3ccc(F)cc3F)CC2)sc1C(=O)c1c(F)cccc1F | 67 |
| CS(=O)(=O)c1ccccc1S(=O)(=O)N1CCC(Nc2nc(N)c(C(=O)c3c(F)cccc3F)s2)CC1 | -5 |
| COc1ccc(C(=O)N2CCC(Nc3nc(N)c(C(=O)c4c(F)cccc4F)s3)CC2)cc1Cl | 47 |
| COc1ccc(CC(=O)N2CCC(Nc3nc(N)c(C(=O)c4c(F)cccc4F)s3)CC2)cc1OC | 55 |
| COc1ccc(C(O)C(=O)N2CCC(Nc3nc(N)c(C(=O)c4c(F)cccc4F)s3)CC2)cc1O (configuration not stated) | 58 |
| Nc1nc(NC2CCN(C(=O)c3ccc(F)c4ccccc34)CC2)sc1C(=O)c1c(F)cccc1F | 30 |
| Cc1cccc(Cl)c1C(=O)N1CCC(Nc2nc(N)c(C(=O)c3c(F)cccc3F)s2)CC1 | 47 |
| Cc1cc(C)c(S(=O)(=O)N2CCC(Nc3nc(N)c(C(=O)c4c(F)cccc4F)s3)CC2)c(C)c1 | -14 |
| Cc1ccc(C)c(/C=C/C(=O)N2CCC(Nc3nc(N)c(C(=O)c4c(F)cccc4F)s3)CC2)c1 | 34 |

Other lines, results leading:

| inhibition [%] | Compound |
| --- | --- |
| 56 | Cc1ccccc1CC(=O)N1CCC(Nc2nc(N)c(C(=O)c3c(F)cccc3F)s2)CC1 |
| 68 | CC(=O)CCCC(=O)N1CCC(Nc2nc(N)c(C(=O)c3c(F)cccc3F)s2)CC1 |
| 49 | CC(O)(C(=O)N1CCC(Nc2nc(N)c(C(=O)c3c(F)cccc3F)s2)CC1)c1ccccc1 (configuration not stated) |
| 25 | CC(=O)OCC(=O)N1CCC(Nc2nc(N)c(C(=O)c3c(F)cccc3F)s2)CC1 |
| 55 | CC(C)(C)c1ccc(CC(=O)N2CCC(Nc3nc(N)c(C(=O)c4c(F)cccc4F)s3)CC2)cc1 |
| 69 | C=CCC/C=C/C(=O)N1CCC(Nc2nc(N)c(C(=O)c3c(F)cccc3F)s2)CC1 |
| 59 | CCCCCCC(=O)N1CCC(Nc2nc(N)c(C(=O)c3c(F)cccc3F)s2)CC1 |
| 64 | CC(O)(CC(=O)N1CCC(Nc2nc(N)c(C(=O)c3c(F)cccc3F)s2)CC1)C(F)(F)F (configuration not stated) |
| -6 | Nc1nc(NC2CCN(C(=O)c3ccccc3OC(F)(F)F)CC2)sc1C(=O)c1c(F)cccc1F |
| 52 | C#CCCC(=O)N1CCC(Nc2nc(N)c(C(=O)c3c(F)cccc3F)s2)CC1 |
| 18 | CCOCCC(=O)N1CCC(Nc2nc(N)c(C(=O)c3c(F)cccc3F)s2)CC1 |
| -11 | COCCOC(=O)N1CCC(Nc2nc(N)c(C(=O)c3c(F)cccc3F)s2)CC1 |
| 57 | Nc1nc(NC2CCN(C(=O)Cc3cc(F)c(F)c(F)c3)CC2)sc1C(=O)c1c(F)cccc1F |
| 62 | CCOCC(=O)N1CCC(Nc2nc(N)c(C(=O)c3c(F)cccc3F)s2)CC1 |
| 50 | CC(=O)SC(C)CC(=O)N1CCC(Nc2nc(N)c(C(=O)c3c(F)cccc3F)s2)CC1 (configuration not stated) |
| 62 | CCCCCC#CC(=O)N1CCC(Nc2nc(N)c(C(=O)c3c(F)cccc3F)s2)CC1 |
| 67 | Cc1nc(C)c(C(=O)N2CCC(Nc3nc(N)c(C(=O)c4c(F)cccc4F)s3)CC2)s1 |
| 38 | CC(O)CC(=O)N1CCC(Nc2nc(N)c(C(=O)c3c(F)cccc3F)s2)CC1 (configuration not stated) |
| 51 | Nc1nc(NC2CCN(C(=O)CC3=CCCCC3)CC2)sc1C(=O)c1c(F)cccc1F |
| -24 | COC(=O)CC(=O)N1CCC(Nc2nc(N)c(C(=O)c3c(F)cccc3F)s2)CC1 |
| 49 | C[C@H](CC(=O)N1CCC(Nc2nc(N)c(C(=O)c3c(F)cccc3F)s2)CC1)c1ccccc1 |
| -10 | Nc1nc(NC2CCN(C(=O)N3CCCC3)CC2)sc1C(=O)c1c(F)cccc1F |
| 60 | Cc1cccc(C(=O)N2CCC(Nc3nc(N)c(C(=O)c4c(F)cccc4F)s3)CC2)n1 |
| 27 | CC(C)C(O)C(=O)N1CCC(Nc2nc(N)c(C(=O)c3c(F)cccc3F)s2)CC1 (configuration not stated) |
| 70 | CC(C)C[C@H](O)C(=O)N1CCC(Nc2nc(N)c(C(=O)c3c(F)cccc3F)s2)CC1 |
| 63 | Nc1nc(NC2CCN(C(=O)CCC(=O)c3cccs3)CC2)sc1C(=O)c1c(F)cccc1F |
| 13 | Nc1nc(NC2CCN(C(=O)CCc3ccc(O)cc3)CC2)sc1C(=O)c1c(F)cccc1F |
| 57 | Nc1nc(NC2CCN(C(=O)Cc3cccc(F)c3F)CC2)sc1C(=O)c1c(F)cccc1F |
